Several values for one entry are separate records, joined by “and”; a condition that tells them apart may be missing. Equal entries are not always repeated.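 All cell lines were grown in 96-well plates and treated with compound for 48 hours. GI50 is the concentration that inhibits growth by half. At the TGI there is no net growth.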 Where only a bound is given, the exact number is not on record here.

This note sets out measurements from PubChem BioAssay (NCI).

Experiment in all cases: NCI-60 cell line screen, 48 h
The test system of experiment [1] is SN12C renal.
The test system of experiment [2] is OVCAR-8 ovarian.
For experiment [3], the system named is TK-10 renal.
Experiment [4] concerns SK-MEL-2 melanoma.
Experiment [5] relates to SK-MEL-5 melanoma.
Experiment [6] deals with EKVX NSCLC.
Experiment [7] deals with SF-539 CNS.
Experiment [8] has as its system MDA-MB-231 breast.
The subject of experiment [9] is SW-620 colon.
Experiment [10] has as its system NCI-H522 lung.

For the molecule `COc1c2c(nc3ccccc13)-c1cc3c(c(=O)n1C2)COC(=O)C3(O)CC(=O)N1CCOCC1` (stereo not given), the TGI in experiment [1] is 25.4 µM; in experiment [2] it was 33.8 µM; in experiment [3], more than 100 µM; in experiment [4] it was 64.6 µM; in experiment [5], 23 µM; in experiment [6], more than 93.6 µM. In addition, the TGI is 5.8 µM in [7], more than 100 µM in experiment [8], more than 100 µM in experiment [9] and 31.4 µM in experiment [10].

Regarding `O=C(/C=C/c1ccc([N+](=O)[O-])cc1)c1ccc2c3c(cccc13)CC2`, the GI50 in experiment [1] was more than 34.6 µM; in experiment [2], 22.2 µM; in [3], 31.4 µM; in [4], more than 100 µM; in experiment [5], 33.2 µM; in [6], 62.9 µM. The GI50 in experiment [7] is 2.63 µM; in experiment [8] it was more than 52.8 µM; in [9], 2.34 µM; in experiment [10] it was 9.77 µM. Further, the TGI in experiment [1] was more than 100 µM; in experiment [2] it was more than 100 µM; in experiment [3], more than 75 µM; in experiment [4], more than 100 µM; in experiment [5], more than 100 µM; in [6], more than 100 µM. Moreover, the TGI in experiment [7] was 7.72 µM; in experiment [8], more than 100 µM; in experiment [9] it was 6.62 µM; in experiment [10], 34.5 µM.

For the molecule `Nc1nc(Nc2ccc(C3CCC(N4CCOCC4)CC3)cc2)nn1-c1ccccn1` (stereo not given), the GI50 in experiment [1] was 2.4 µM; in experiment [2] it was 11.6 µM; in experiment [3], more than 21.5 µM; in experiment [4], 7.77 µM; in experiment [5] it was 20.8 µM; in [6], 8.21 µM. Besides, the GI50 was 1.42 µM in experiment [7], 5.34 µM in experiment [8], 3.4 µM in experiment [9] and 8.51 µM in experiment [10]. The TGI in experiment [1] was more than 100 µM; in experiment [2], more than 100 µM; in experiment [3], more than 100 µM; in experiment [4], more than 61.8 µM; in experiment [5], more than 88.3 µM; in experiment [6], more than 100 µM. Further, the TGI in experiment [7] was 4.99 µM; in experiment [8], more than 100 µM; in [9] it was more than 100 µM; in [10] it was 32.7 µM.

On to `CS[C@]12C(=O)C[C@@]3(C)[C@@H](CC[C@]3(O)C(=O)CO)[C@@H]1CCC1=CC(=O)CC[C@@]12C`, for which the TGI in experiment [1], in experiment [2], in [3], in experiment [4], in experiment [5] and in experiment [6] was more than 100 µM in each case. In addition, the TGI in experiment [7], in experiment [8], in [9] and in [10] was more than 100 µM in each case.

For the molecule `COc1ccc(C2SC(C)C(=O)N2NC(=O)C(O)c2ccccc2)cc1OC` (stereo not given), the GI50 in experiment [1], in experiment [2], in experiment [3], in experiment [4], in [5] and in experiment [6] was more than 100 µM in each case. In addition, the GI50 in [7], in experiment [8], in experiment [9] and in [10] was more than 100 µM throughout. For the same molecule, the TGI in [1], in experiment [2], in experiment [3], in [4], in experiment [5] and in [6] was more than 100 µM throughout. The TGI in [7], in experiment [8], in experiment [9] and in experiment [10] was more than 100 µM throughout.

On to `C/C=C(\C)C(=O)O[C@H]1C=CC(=O)O[C@@H]1CC[C@H](O)[C@H](C)O`, for which the GI50 in [1] was 47 µM; in experiment [2], 52.5 µM; in experiment [3], 50.6 µM; in [4] it was 37.6 µM; in experiment [5], 25.4 µM; in experiment [6] it was 73.9 µM. The GI50 was 30.9 µM in [7], 52.2 µM in experiment [8], 24 µM in experiment [9] and 18 µM in [10]. The TGI in experiment [1] is more than 100 µM; in [2] it was more than 100 µM; in experiment [3], more than 100 µM; in [4] it was 98.1 µM; in [5], 75.2 µM; in experiment [6], more than 100 µM. The TGI in experiment [7] is more than 100 µM; in [8] it was more than 100 µM; in experiment [9] it was 57.6 µM; in experiment [10], 43.4 µM.

Take `CC1(C)[C@@H](OC(N)=O)[C@H]2O[C@H]2[C@]2(CO)[C@H]3CC[C@]4(C)[C@@H](c5ccc(=O)oc5)[C@@H](Cl)C[C@]4(O)C3=CC[C@@H]12`: the GI50 was 0.00766 µM in [1]; 0.00863 µM in [2]; 0.00555 µM in experiment [3]; 0.00818 µM in [4]; 0.00681 µM in experiment [5]; 0.00534 µM in experiment [6]. Moreover, the GI50 in experiment [7] was 0.00453 µM; in experiment [8] it was 0.0283 µM; in experiment [9], 0.00835 µM; in experiment [10], 0.00455 µM. Also, the TGI in experiment [1] was 0.0325 µM; in experiment [2], 0.0297 µM; in experiment [3], 0.015 µM; in [4], 0.033 µM; in experiment [5], 0.0195 µM; in experiment [6] it was less than 0.0138 µM. The TGI in [7] worked out at 0.00951 µM; in experiment [8], 0.103 µM; in experiment [9] it was 0.0279 µM; in experiment [10], 0.0147 µM.

As to `CC#CC(=O)SCCNC(=O)CC`, the TGI in experiment [1], in experiment [2], in [3], in experiment [4], in experiment [5] and in experiment [6] was more than 10 µM each time. The TGI is more than 10 µM in [7], more than 10 µM in experiment [8], more than 10 µM in experiment [9] and 3.14 µM in experiment [10].

On to `C[CH2][Sn]([CH2]C)([O]C(=O)C(OC(C)=O)c1ccccc1)[O]C(=O)C(OC(C)=O)c1ccccc1` (stereo not given), for which the GI50 in experiment [1] is more than 100 µM; in experiment [2], more than 100 µM; in experiment [3], 18.8 µM; in experiment [4] it was 54.6 µM; in experiment [5] it was 68.1 µM; in [6], more than 100 µM. The GI50 in experiment [7] was 17.5 µM; in experiment [8] it was 26.6 µM; in [9], 16.3 µM; in experiment [10], 1.58 µM. Besides, the TGI in experiment [1] was more than 100 µM; in experiment [2], more than 100 µM; in experiment [3], 33 µM; in experiment [4], more than 100 µM; in [5] it was more than 100 µM; in [6] it was more than 100 µM. Also, the TGI is 33 µM in experiment [7], 77.8 µM in [8], 36.8 µM in experiment [9] and 4.35 µM in experiment [10].

With `O=C(Nc1ccc(Cl)cc1)Nc1ccc(Nc2nncc3ccccc23)cc1`, the GI50 in experiment [1] is 4.58 µM; in [2], 3.12 µM; in experiment [3], 5.03 µM; in experiment [4], 2.7 µM; in experiment [5], 2.31 µM; in experiment [6], 2.95 µM. Moreover, the GI50 in experiment [7] was 2.88 µM; in [8] it was 3.4 µM; in [9], 3.16 µM; in experiment [10] it was 1.32 µM. Also, the TGI turned out to be 37.2 µM in [1]; 12.4 µM in [2]; 24.4 µM in experiment [3]; 7.7 µM in experiment [4]; 6.82 µM in experiment [5]; 25.3 µM in experiment [6]. Moreover, the TGI in experiment [7] was 11.5 µM; in experiment [8] it was 15.9 µM; in [9] it was 18.6 µM; in experiment [10], 8.81 µM.

On to `COc1ccc(/C=C2\S/C(=N/Nc3nc(-c4ccccc4)cs3)NC2=O)cc1OC`, for which the TGI in [1] is more than 100 µM; in experiment [2], 47.5 µM; in experiment [3], 59.4 µM; in experiment [4] it was 47.5 µM; in experiment [5], 31.2 µM; in experiment [6] it was 98.4 µM. The TGI in experiment [7] is 71.4 µM; in experiment [8] it was 75.7 µM; in experiment [9] it was more than 100 µM; in experiment [10], 47.4 µM.

Turning to `COC(=O)c1cc2ccc(OC(C)=O)c(OC(C)=O)c2cn1`, the GI50 in experiment [1] was 6.91 µM; in experiment [2], 10.1 µM; in [8], 17.7 µM; in experiment [9] it was 13.4 µM. Also, the TGI was determined as 21.3 µM in experiment [1]; 22.2 µM in experiment [2]; 34.9 µM in experiment [3]; 36.7 µM in [4]; 30.3 µM in experiment [5]; 38.1 µM in experiment [6]. The TGI is 33.8 µM in experiment [7]; 7.12 µM and 42.9 µM in experiment [8]; 31.9 µM in experiment [9]; 34.5 µM in [10].

For `Clc1nc(Cl)c2ncn(C/C=C/COc3cccc(OC/C=C/Cn4cnc5c(Cl)nc(Cl)nc54)c3)c2n1`, the GI50 in experiment [1] is more than 100 µM; in [2], more than 100 µM; in experiment [3], more than 100 µM; in [4], more than 100 µM; in experiment [5], 53.5 µM; in [6], more than 100 µM. In addition, the GI50 in [7] is more than 100 µM; in experiment [8], 12.7 µM; in [9], more than 100 µM; in [10], more than 100 µM. The TGI in experiment [1], in experiment [2], in experiment [3], in experiment [4], in experiment [5] and in experiment [6] was more than 100 µM each time. Further, the TGI was more than 100 µM in [7], 25.3 µM in experiment [8], more than 100 µM in [9] and more than 100 µM in experiment [10].

As for `Cc1c2c(nn1C)CSCc1cc(n(C)n1)CSc1cc(c3ccccc3c1)OCCCc1c(C(=O)O)n(C)c3c-2c(Cl)ccc13`, the GI50 is 3.38 µM in [1]; 4.62 µM in experiment [2]; 4.75 µM in experiment [3]; 0.165 µM in experiment [4]; 2.2 µM in experiment [5]; 3.86 µM in experiment [6]. Besides, the GI50 in [7] was 1.53 µM; in [8], 5.32 µM; in experiment [9] it was 4.26 µM; in experiment [10], 1.9 µM. Besides, the TGI in experiment [1] was found to be 12.6 µM; in experiment [2], 18.9 µM; in experiment [3] it was 18.3 µM; in experiment [4] it was 0.429 µM; in experiment [5] it was 5.22 µM; in [6], 15.7 µM. Also, the TGI in experiment [7] worked out at 7.33 µM; in experiment [8], 18.2 µM; in [9] it was 16 µM; in experiment [10], 8.01 µM.

For `COc1ccc(/C=C\c2cc(OC)c(OC)c(OC)c2)cc1OC`, the GI50 in experiment [1] was 0.94 µM; in experiment [2], 0.275 µM; in experiment [3], 23.5 µM; in [4], 0.121 µM; in experiment [5] it was 0.0514 µM; in [6] it was 0.333 µM. The GI50 in experiment [7] is 0.0605 µM; in experiment [9], 0.0472 µM; in experiment [10], 0.154 µM. Moreover, the TGI in [3] was 40.4 µM and > 100 µM; in experiment [4], 40.4 µM and > 100 µM; in [5], 40.4 µM and 16.8 µM; in experiment [6], 40.4 µM and > 100 µM; in experiment [7], 0.294 µM and 0.283 µM; in experiment [8] it was more than 100 µM. In experiment [9], the TGI is 40.4 µM and > 100 µM.
